In patent US5235843A, “Method and apparatus for analyzing volatile chemical components in a liquid” (The Dow Chemical Company, priority 1991, dated 1993):

Experiment: Enrichment (partitioning from water to air in segmented flow), enrichment factor
Type: physicochemical
Details: calculated enrichment factor
Excerpt: That is, each enrichment factor is a direct measure of the detection capabilities of the method and apparatus with respect to a specific volatile compound compound.
Both the detection limit in air and quantitation limit in water will vary depending on the sensitivity of the analytical equipment used. Thus, at any given testing site the sensitivity of the particular gas chromatograph used will determine detection and quantitation limits.
Without benefit of known enrichment factor for each compound compound present, extrapolation of the quantitation limit (LOQ) for each compound was accomplished by multiplying the signal-to-noise ratio of the test instrument by ten. These quantitation limits are a reflection of both the detector sensitivity (LOD) and what can be referred to as the enrichment factor or magnification of the concentration into the air phase. Thus, an enrichment factor was calculated for each compound as follows: [formula]
The enrichment factor depends on the volatility, water solubility, and diffusion coefficient of the particular compound.

| Compound | EF (air/water) |
| --- | --- |
| Cl/C=C/CCl [t-1,3-DICHLOROPROPENE] | 7.2 |
| ClCCl [METHYLENE CHLORIDE] | 8.2 |
| ClC(Cl)C(Cl)Cl [1,1,2,2-TETRACHLOROETHANE] | 2.0 |
| Clc1ccccc1Cl [1,2-DICHLOROBENZENE] | 1.7 |
| CBr [METHYL BROMIDE] | 76 |
| ClC(Cl)Cl [CHLOROFORM] | 6.6 |
| ClC(Cl)Br [BROMODICHLOROMETHANE] | 7.7 |
| BrC(Br)Br [BROMOFORM] | 2.0 |
| ClC(Cl)=C(Cl)Cl [PERCHLOROETHYLENE] | 4.8 |
| C=C(Cl)Cl [[…]] | 12 |
| Clc1ccccc1 [CHLOROBENZENE] | 4.0 |
| Cl/C=C\CCl [c-1,3 DICHLOROPROPENE] | 3.6 |
| CC(Cl)(Cl)Cl [1,1,-TRICHLOROETHANE] | 6.8 |
| ClCC(Cl)Cl [1,1,2-TRICHLOROETHANE] | 3.9 |
| ClCCCl [1,2-DICHLOROETHANE] | 6.8 |
| ClC=C(Cl)Cl [TRICHLOROETHYLENE] | 9.9 |
| CC(Cl)CCl (stereo not drawn) [1,2-DICHLOROPROPANE] | 7.7 |
| ClC(Cl)(Cl)Cl [CARBON TETRACHLORIDE] | 7.7 |
| Cl/C=C/Cl [t-1,2-DICHLOROETHYLENE] | 16 |
| ClC(Br)Br [CHLORODIBROMOMETHANE] | 3.7 |
| CC(Cl)Cl [1,1-DICHLOROETHANE] | 6.7 |
